Test results as given in patent publication US9469642B2, “Purinone compounds as kinase inhibitors” (Pharmacyclics LLC, priority 2012, dated 2016).
Structures can show the parent of a compound that is named as a salt.

How the values were obtained:
Type in all cases: biochemical
LCK = LCK (Homo sapiens, UniProt P06239); assay: Kinase panel inhibition, LCK (one of the methods of Example 76a, 76b, 76c)
Description: (§1) Btk kinase activity is determined using a time-resolved fluorescence resonance energy transfer (TR-FRET) methodology. Measurements are performed in a reaction volume of 50 μL using 96-well assay plates. Kinase enzyme, inhibitor, ATP (at the Km for the kinase), and 1 peptide substrate (Biotin-AVLESEEELYSSARQ-NH2) are incubated in a reaction buffer composed of 20 mM Tris, 50 mM NaCl, MgCl2 (5-25 mM depending on the kinase), MnCl2 (0-10 mM), 1 mM DTT, 0.1 mM EDTA, 0.01% bovine serum albumin, 0.005% Tween-20, and 10% DMSO at pH 7.4 for one hour. The reaction is quenched by the addition of 1.2 equivalents of EDTA (relative to divalent cation) in 25 μL of 1× Lance buffer (Perkin-Elmer). Streptavidin-APC (Perkin-Elmer) and Eu-labeled p-Tyr100 antibody (Perkin-Elmer) in 1× Lance buffer are added in a 25 μL volume to give final concentrations of 100 nM and 2.5 nM, respectively, and the mixture is allowed to incubate for one hour. The TR-FRET signal is measured on a multimode plate reader with an excitation wavelength (λEx) of 330 nm and detection wavelengths (λEm) of 615 and 665 nm. Activity is determined by the ratio of the fluorescence at 665 nm to that at 615 nm. For each compound, enzyme activity is measured at various concentrations of compound. Negative control reactions are performed in the absence of inhibitor in replicates of six, and two no-enzyme controls are used to determine baseline fluorescence levels. Inhibition constants, Ki(app), were obtained using the program BatchKi (Kuzmic et al. (2000), Anal. Biochem. 286:45-50). IC50s are obtained according to the equation: IC50=[…]+[E]total/2;
(§2) For all kinases, [ATP]=Km^ATP, [Btk]total=0.5 nM and [Lck]total=6 nM.
(§3) Kinase activity is measured in vitro using electrophoretic mobility shift assay. The kinase reactions are assembled in a total volume of 25 μL in 384 well plates. The reactions comprise: BTK enzyme (1 nM, N-terminal His6-tagged, recombinant, full-length, human BTK purified from baculovirus Sf21 insect cell system), inhibitor, ATP (16 μM, the apparent Km for the kinase), fluorescently labeled peptide substrate (1 μM, FAM-GEEPLYWSFPAKKK-NH2) in a reaction buffer composed of 100 mM HEPES, pH7.5, 5 mM MgCl2 1 mM DTT, 0.1% bovine serum albumin, 0.01% Triton X-100, and 1% DMSO. The reaction is incubated for one hour and is quenched by the addition of 45 μL of termination buffer (100 mM HEPES, pH7.5, 0.01% Triton X-100, 30 mM EDTA). The terminated reactions are analyzed using 12 channel LabChip® 3000 microfluidic detection instrument (Caliper Life Sciences). The enzymatic phosphorylation of the peptide results in a change in net charge, enabling electrophoretic separation of product from substrate peptide. As substrate and product peptides are separated, two peaks of fluorescence are observed. Change in the relative fluorescence intensity of the substrate and product peaks is the parameter measured, reflecting enzyme activity. In the presence of an inhibitor, the ratio between product and substrate is altered:the signal of the product decreases, while the signal of the substrate increases.
(§4) Activity in each sample is determined as the product to sum ratio (PSR):P/(S+P), where P is the peak height of the product peptide and S is the peak height of the substrate peptide. For each compound, enzyme activity is measured at various concentrations (12 concentrations of compound spaced by 3× dilution intervals). Negative control samples (0%-inhibition in the absence of inhibitor) and positive control samples (100%-inhibition, in the presence of 20 mM EDTA) are assembled in replicates of four and are used to calculate %-inhibition values for each inhibitor at each concentration. Percent inhibition (Pinh) is determined using following equation: […]

EGFR = EGFR (Homo sapiens, UniProt P00533); assay: Kinase panel inhibition, EGFR (one of the methods of Example 76a, 76b, 76c)
Chain of EGFR (P00533 25-1210, species assumed): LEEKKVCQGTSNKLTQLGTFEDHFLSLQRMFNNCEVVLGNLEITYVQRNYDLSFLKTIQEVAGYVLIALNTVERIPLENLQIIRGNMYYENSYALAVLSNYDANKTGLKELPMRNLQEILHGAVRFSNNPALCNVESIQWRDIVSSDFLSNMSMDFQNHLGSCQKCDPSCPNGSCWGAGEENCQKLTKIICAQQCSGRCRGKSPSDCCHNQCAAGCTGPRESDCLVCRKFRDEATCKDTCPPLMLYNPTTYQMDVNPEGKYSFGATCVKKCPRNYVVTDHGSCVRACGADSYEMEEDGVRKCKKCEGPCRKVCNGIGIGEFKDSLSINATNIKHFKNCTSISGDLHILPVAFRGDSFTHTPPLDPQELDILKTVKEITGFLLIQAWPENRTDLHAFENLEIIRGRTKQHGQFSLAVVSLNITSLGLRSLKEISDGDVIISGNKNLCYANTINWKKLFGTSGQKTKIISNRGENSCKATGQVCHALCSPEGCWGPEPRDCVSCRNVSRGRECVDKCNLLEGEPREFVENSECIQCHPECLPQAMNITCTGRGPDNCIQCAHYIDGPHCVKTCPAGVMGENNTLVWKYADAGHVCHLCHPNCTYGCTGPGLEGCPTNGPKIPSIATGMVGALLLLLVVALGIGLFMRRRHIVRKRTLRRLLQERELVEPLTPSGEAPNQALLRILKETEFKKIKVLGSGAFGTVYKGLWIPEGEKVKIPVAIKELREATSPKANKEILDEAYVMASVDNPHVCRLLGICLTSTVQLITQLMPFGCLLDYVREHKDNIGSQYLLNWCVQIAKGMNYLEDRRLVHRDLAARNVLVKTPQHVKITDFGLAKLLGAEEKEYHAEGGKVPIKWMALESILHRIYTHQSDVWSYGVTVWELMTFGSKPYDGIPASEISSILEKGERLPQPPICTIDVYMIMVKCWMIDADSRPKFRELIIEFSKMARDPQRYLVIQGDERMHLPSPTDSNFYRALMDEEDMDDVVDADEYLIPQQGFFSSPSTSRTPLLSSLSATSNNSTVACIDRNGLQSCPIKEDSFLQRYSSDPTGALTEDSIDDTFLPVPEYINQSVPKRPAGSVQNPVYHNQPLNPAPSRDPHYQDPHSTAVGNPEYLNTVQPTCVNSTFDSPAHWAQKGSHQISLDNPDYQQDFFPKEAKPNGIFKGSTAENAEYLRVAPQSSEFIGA
Description: as §1, §2, §3, §4

BTK = target: T1, BTK (Homo sapiens, UniProt Q06187); assay: Btk in vitro inhibitory activity (kinase assay by one of Methods A, B or C)
T1 construct: purified from insect cells as a full-length construct containing a N-terminal 6×-His tag; His6 (N); host or cells: insect cells (baculovirus Sf21)
T1 sequence (Q06187 whole entry): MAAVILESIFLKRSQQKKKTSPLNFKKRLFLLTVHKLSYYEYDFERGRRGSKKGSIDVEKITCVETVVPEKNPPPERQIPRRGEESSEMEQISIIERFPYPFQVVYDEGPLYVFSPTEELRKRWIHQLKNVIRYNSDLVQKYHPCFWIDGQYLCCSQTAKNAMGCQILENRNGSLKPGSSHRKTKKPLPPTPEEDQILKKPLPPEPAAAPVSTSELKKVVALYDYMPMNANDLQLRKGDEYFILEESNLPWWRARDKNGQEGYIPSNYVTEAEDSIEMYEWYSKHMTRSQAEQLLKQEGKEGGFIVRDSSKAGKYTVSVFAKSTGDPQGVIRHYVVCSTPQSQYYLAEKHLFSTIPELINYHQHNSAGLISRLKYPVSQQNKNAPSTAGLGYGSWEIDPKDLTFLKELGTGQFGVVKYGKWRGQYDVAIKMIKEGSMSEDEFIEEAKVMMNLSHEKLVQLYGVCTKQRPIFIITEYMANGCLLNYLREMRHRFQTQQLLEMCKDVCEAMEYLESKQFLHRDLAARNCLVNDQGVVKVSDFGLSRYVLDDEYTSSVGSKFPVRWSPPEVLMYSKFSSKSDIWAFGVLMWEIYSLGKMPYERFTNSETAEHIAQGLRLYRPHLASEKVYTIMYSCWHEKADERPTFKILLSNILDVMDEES
Description: as §1, §2, §3, §4

Chain of LCK (P06239 whole entry, species assumed): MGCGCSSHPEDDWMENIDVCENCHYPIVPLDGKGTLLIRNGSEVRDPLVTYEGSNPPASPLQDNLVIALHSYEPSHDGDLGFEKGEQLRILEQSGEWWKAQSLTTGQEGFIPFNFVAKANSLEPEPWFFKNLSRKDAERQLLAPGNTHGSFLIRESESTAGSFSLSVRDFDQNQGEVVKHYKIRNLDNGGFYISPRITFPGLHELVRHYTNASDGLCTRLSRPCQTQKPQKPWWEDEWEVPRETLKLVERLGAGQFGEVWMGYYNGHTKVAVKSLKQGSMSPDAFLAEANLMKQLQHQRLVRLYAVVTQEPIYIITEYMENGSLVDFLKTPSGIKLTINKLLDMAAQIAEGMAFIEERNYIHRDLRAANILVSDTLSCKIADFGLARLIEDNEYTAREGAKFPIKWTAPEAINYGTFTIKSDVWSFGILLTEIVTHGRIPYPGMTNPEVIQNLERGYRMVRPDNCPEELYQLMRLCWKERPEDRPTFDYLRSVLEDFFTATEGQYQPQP

SMILES	IC50 (LCK) [µM]	IC50 (EGFR) [nM]	IC50 (BTK) [nM]
CN(C(=O)/C=C/CN(C)[C@H]1CCOC1)c1cccc(-n2c(=O)n(-c3ccc(Oc4ccccc4)cc3)c3c(N)ncnc32)c1 [Compound 123, (S,E)-N-(3-(6-amino-8-oxo-7-(4-phenoxyphenyl)-7H-purin-9(8H)-yl)phenyl)-N-methyl-4-(methyl(tetrahydrofuran-3-yl)amino)but-2-enamide]	1 to 10	1000 to 10000	< 100
CN(C(=O)/C=C/CN(C)[C@@H]1CCOC1)c1cccc(-n2c(=O)n(-c3ccc(Oc4ccccc4)cc3)c3c(N)ncnc32)c1 [Compound 129, (R,E)-N-(3-(6-amino-8-oxo-7-(4-phenoxyphenyl)-7H-purin-9(8H)-yl)phenyl)-N-methyl-4-(methyl(tetrahydrofuran-3-yl)amino)but-2-enamide]	1 to 10	1000 to 10000	< 100
COCCN(C)C/C=C/C(=O)N(C)c1cccc(-n2c(=O)n(-c3ccc(Oc4ccccc4)cc3)c3c(N)ncnc32)c1 [Compound 134, (E)-N-(3-(6-amino-8-oxo-7-(4-phenoxyphenyl)-7H-purin-9(8H)-yl)phenyl)-4-((2-methoxyethyl)(methyl)amino)-N-methylbut-2-enamide]	1 to 10	100 to 1000	< 100
COCCOc1cc(N(C)C(=O)/C=C/CN(C)C)cc(-n2c(=O)n(-c3ccc(C)c(OC)c3)c3c(N)ncnc32)c1 [Compound 147, (E)-N-(3-(6-amino-7-(3-methoxy-4-methylphenyl)-8-oxo-7H-purin-9(8H)-yl)-5-(2-methoxyethoxy)phenyl)-4-(dimethylamino)-N-methylbut-2-enamide]	> 10	> 10000	< 100
CN(C(=O)/C=C/CN(C)C1CC1)c1cccc(-n2c(=O)n(-c3ccc(Oc4cccc(F)c4)cc3)c3c(N)ncnc32)c1 [Compound 151, (E)-N-(3-(6-amino-7-(4-(3-fluorophenoxy)phenyl)-8-oxo-7H-purin-9(8H)-yl)phenyl)-4-(cyclopropyl(methyl)amino)-N-methylbut-2-enamide]	1 to 10	1000 to 10000	< 100
CN(C/C=C/C(=O)N1CCOc2ccc(-n3c(=O)n(-c4ccc(Oc5ccccc5)cc4)c4c(N)ncnc43)cc21)C1CC1 [Compound 161, (E)-6-amino-9-(4-(4-(cyclopropyl(methyl)amino)but-2-enoyl)-3,4-dihydro-2H-benzo[b][1,4]oxazin-6-yl)-7-(4-phenoxyphenyl)-7H-purin-8(9H)-one]	1 to 10	100 to 1000	< 100
COc1ccc(-n2c(=O)n(-c3ccc(Oc4ccccc4)cc3)c3c(N)ncnc32)cc1N(C)C(=O)/C=C/CN(C)C1CC1 [Compound 171, (E)-N-(5-(6-amino-8-oxo-7-(4-phenoxyphenyl)-7H-purin-9(8H)-yl)-2-methoxyphenyl)-4-(cyclopropyl(methyl)amino)-N-methylbut-2-enamide]	1 to 10	1000 to 10000	< 100
Cc1ccc(N(C)C(=O)/C=C/CN(C)C2CC2)cc1-n1c(=O)n(-c2ccc(Oc3ccccc3)cc2)c2c(N)ncnc21 [Compound 191, (E)-N-(3-(6-amino-8-oxo-7-(4-phenoxyphenyl)-7H-purin-9(8H)-yl)-4-methylphenyl)-4-(cyclopropyl(methyl)amino)-N-methylbut-2-enamide]	> 10	> 10000	100 to 1000
Cc1ccc(-n2c(=O)n(-c3ccc(Oc4ccccc4)cc3)c3c(N)ncnc32)cc1N(C)C(=O)/C=C/CN(C)C1CC1 [Compound 201, (E)-N-(5-(6-amino-8-oxo-7-(4-phenoxyphenyl)-7H-purin-9(8H)-yl)-2-methylphenyl)-4-(cyclopropyl(methyl)amino)-N-methylbut-2-enamide]	1 to 10	1000 to 10000	< 100
Cc1cc(N(C)C(=O)/C=C/CN(C)C2CC2)cc(-n2c(=O)n(-c3ccc(Oc4ccccc4)cc3)c3c(N)ncnc32)c1 [Compound 211, (E)-N-(3-(6-amino-8-oxo-7-(4-phenoxyphenyl)-7H-purin-9(8H)-yl)-5-methylphenyl)-4-(cyclopropyl(methyl)amino)-N-methylbut-2-enamide]	1 to 10	100 to 1000	< 100
COc1cc(N(C)C(=O)/C=C/CN(C)C2CC2)cc(-n2c(=O)n(-c3ccc(Oc4ccccc4)cc3)c3c(N)ncnc32)c1 [Compound 224, (E)-N-(3-(6-amino-8-oxo-7-(4-phenoxyphenyl)-7H-purin-9(8H)-yl)-5-methoxyphenyl)-4-(cyclopropyl(methyl)amino)-N-methylbut-2-enamide]	1 to 10	1000 to 10000	< 100
CNC/C=C/C(=O)N(C)c1cccc(-n2c(=O)n(-c3ccc(Oc4ccccc4)cc3)c3c(N)ncnc32)c1 [Compound 229, (E)-N-(3-(6-amino-8-oxo-7-(4-phenoxyphenyl)-7H-purin-9(8H)-yl)phenyl)-N-methyl-4-(methylamino)but-2-enamide hydrochloride]	1 to 10	< 100	< 100
CN(C(=O)/C=C/CN(C)C1CC1)c1cccc(-n2c(=O)n(-c3ccc(OCc4ccccc4)cc3)c3c(N)ncnc32)c1 [Compound 234, (E)-N-(3-(6-amino-7-(4-(benzyloxy)phenyl)-8-oxo-7H-purin-9(8H)-yl)phenyl)-4-(cyclopropyl(methyl)amino)-N-methylbut-2-enamide]	1 to 10	1000 to 10000	< 100
Cc1cccc(COc2ccc(-n3c(=O)n(-c4cccc(N(C)C(=O)/C=C/CN(C)C5CC5)c4)c4ncnc(N)c43)cc2)c1 [Compound 239, (E)-N-(3-(6-amino-7-(4-(3-methylbenzyloxy)phenyl)-8-oxo-7H-purin-9(8H)-yl)phenyl)-4-(cyclopropyl(methyl)amino)-N-methylbut-2-enamide]	> 10	1000 to 10000	< 100
CN(C(=O)/C=C/CN(C)C1CC1)c1cccc(-n2c(=O)n(-c3ccc(OCc4cccc(F)c4)cc3)c3c(N)ncnc32)c1 [Compound 244, (E)-N-(3-(6-amino-7-(4-(3-fluorobenzyloxy)phenyl)-8-oxo-7H-purin-9(8H)-yl)phenyl)-4-(cyclopropyl(methyl)amino)-N-methylbut-2-enamide]	> 10	1000 to 10000	< 100
CN(C(=O)/C=C/c1ccccn1)c1cccc(-n2c(=O)n(-c3ccc(Oc4ccccc4)cc3)c3c(N)ncnc32)c1 [Compound 247, (E)-N-(3-(6-amino-8-oxo-7-(4-phenoxyphenyl)-7H-purin-9(8H)-yl)phenyl)-N-methyl-3-(pyridin-2-yl)acrylamide]	1 to 10	1000 to 10000	100 to 1000
Cc1cc(NC(=O)/C=C/CN(C)C2CC2)cc(-n2c(=O)n(-c3ccc(Oc4ccccc4)cc3)c3c(N)ncnc32)c1 [Compound 255, (E)-N-(3-(6-amino-8-oxo-7-(4-phenoxyphenyl)-7H-purin-9(8H)-yl)-5-methylphenyl)-4-(cyclopropyl(methyl)amino)but-2-enamide]	0.1 to 1	100 to 1000	< 100
COc1cc(-n2c(=O)n(-c3cccc(N(C)C(=O)/C=C/CN(C)C4CC4)c3)c3ncnc(N)c32)ccc1Oc1ccccc1 [Compound 285, (E)-N-(3-(6-amino-7-(3-methoxy-4-phenoxyphenyl)-8-oxo-7H-purin-9(8H)-yl)phenyl)-4-(cyclopropyl(methyl)amino)-N-methylbut-2-enamide]	1 to 10	1000 to 10000	< 100
